Assay results as given in ChEMBL document CHEMBL4177635, “Discovery and structure-activity-relationship study of novel conformationally restricted indane analogues for mutant isocitric dehydrogenase 1 (IDH1) inhibitors” (Bioorg Med Chem Lett, 2017).
pIC50: −log10 of the molar value.

How the values were obtained:
[1] = target: Isocitrate dehydrogenase [NADP] cytoplasmic (Homo sapiens, UniProt O75874, R132H); test: Inhibition of IDH1 R132H mutant (unknown origin) using alpha-ketoglutarate as substrate after 60 mins by resazurin dye based fluorescence assay
Isocitrate dehydrogenase [NADP] cytoplasmic (Homo sapiens, UniProt O75874, R132H), sequence (O75874 2-414 R132H limits assumed): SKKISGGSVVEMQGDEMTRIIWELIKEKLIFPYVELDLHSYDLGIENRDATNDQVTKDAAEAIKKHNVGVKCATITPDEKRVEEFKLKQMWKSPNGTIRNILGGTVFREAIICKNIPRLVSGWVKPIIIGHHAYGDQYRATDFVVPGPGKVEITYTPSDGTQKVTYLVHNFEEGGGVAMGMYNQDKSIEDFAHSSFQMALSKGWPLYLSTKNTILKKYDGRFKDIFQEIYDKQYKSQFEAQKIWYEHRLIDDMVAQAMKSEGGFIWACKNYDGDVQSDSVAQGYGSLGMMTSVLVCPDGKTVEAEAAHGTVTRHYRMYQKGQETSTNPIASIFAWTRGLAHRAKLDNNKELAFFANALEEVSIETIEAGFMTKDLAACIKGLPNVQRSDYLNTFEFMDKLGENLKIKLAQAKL

[2] = target: Isocitrate dehydrogenase [NADP] cytoplasmic (Homo sapiens, UniProt O75874, R132C); test: Inhibition of IDH1 R132C mutant in human HT1080 cells assessed as reduction in 2-hydroxyglutarate production after 48 hrs by LC-MS/MS analysis; type: cell-based
Isocitrate dehydrogenase [NADP] cytoplasmic (Homo sapiens, UniProt O75874, R132C), sequence (O75874 2-414 R132C limits assumed): as the sequence (O75874 2-414 R132H limits assumed) above, with H131C counted along it

[3] = Intrinsic clearance in mouse liver microsomes assessed per g protein at 1 uM by LC-MS/MS analysis; type: ADME, microsome
[4] = Intrinsic clearance in rat liver microsomes assessed per g protein at 1 uM by LC-MS/MS analysis; type: ADME, microsome
[5] = target: Isocitrate dehydrogenase [NADP] cytoplasmic (Homo sapiens, UniProt O75874); test: Inhibition of IDH1 (unknown origin) using isocitrate as substrate after 60 mins by resazurin dye based fluorescence assay
Isocitrate dehydrogenase [NADP] cytoplasmic (Homo sapiens, UniProt O75874), sequence (O75874 whole entry): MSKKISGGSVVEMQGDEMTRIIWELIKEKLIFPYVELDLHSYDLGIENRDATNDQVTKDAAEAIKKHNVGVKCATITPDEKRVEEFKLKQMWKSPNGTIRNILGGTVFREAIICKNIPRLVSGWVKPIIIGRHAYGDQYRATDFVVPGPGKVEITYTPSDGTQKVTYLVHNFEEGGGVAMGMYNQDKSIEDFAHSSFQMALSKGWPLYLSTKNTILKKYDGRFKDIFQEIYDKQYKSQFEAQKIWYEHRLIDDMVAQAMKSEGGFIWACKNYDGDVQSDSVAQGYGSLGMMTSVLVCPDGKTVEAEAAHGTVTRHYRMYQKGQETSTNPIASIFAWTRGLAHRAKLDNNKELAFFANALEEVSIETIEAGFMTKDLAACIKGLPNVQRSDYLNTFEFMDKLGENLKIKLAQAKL

[6] = target: Isocitrate dehydrogenase [NADP], mitochondrial (Homo sapiens, UniProt P48735, R140Q); test: Inhibition of IDH2 R140Q mutant (unknown origin) using alpha-ketoglutarate as substrate pretreated for 60 mins followed by substrate addition measured after 60 mins by resazurin dye based fluorescence assay
Isocitrate dehydrogenase [NADP], mitochondrial, sequence (P48735 40-452 R140Q limits assumed): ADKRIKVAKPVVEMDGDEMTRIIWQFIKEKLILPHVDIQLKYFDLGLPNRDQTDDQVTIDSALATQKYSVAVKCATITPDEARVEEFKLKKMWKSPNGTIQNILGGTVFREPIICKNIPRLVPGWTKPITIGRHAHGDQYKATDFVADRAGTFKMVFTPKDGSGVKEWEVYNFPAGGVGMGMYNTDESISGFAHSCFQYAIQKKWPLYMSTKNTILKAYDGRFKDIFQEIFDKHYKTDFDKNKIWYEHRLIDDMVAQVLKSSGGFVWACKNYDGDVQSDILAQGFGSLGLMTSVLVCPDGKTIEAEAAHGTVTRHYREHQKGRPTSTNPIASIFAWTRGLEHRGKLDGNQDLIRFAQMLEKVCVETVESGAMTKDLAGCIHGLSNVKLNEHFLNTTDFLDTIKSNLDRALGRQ

[7] = species on record: Homo sapiens; test: Selectivity ratio of IC50 for IDH1 (unknown origin) to IC50 for […] (unknown origin)
[8] = species on record: Homo sapiens; test: Selectivity ratio of IC50 for IDH2 R140Q mutant (unknown origin) to IC50 for IDH2 R140Q mutant (unknown origin)
[9] = Clearance in ICR mouse at 1 mg/kg, iv by HPLC-MS analysis; type: ADME, organism-based; conditions: in vivo
[10] = Volume of distribution at steady state in ICR mouse at 1 mg/kg, iv or 5 mg/kg, po by HPLC-MS analysis; type: ADME, organism-based; conditions: in vivo, read-out: Vdss
[11] = tested on: Mus musculus; test: AUC in ICR mouse at 1 mg/kg, iv by HPLC-MS analysis; type: ADME, organism-based; conditions: in vivo
[12] = tested on: Mus musculus; test: AUC in ICR mouse at 5 mg/kg, po by HPLC-MS analysis; type: ADME, organism-based; conditions: in vivo
[13] = tested on: Mus musculus; test: Oral bioavailability in ICR mouse at 5 mg/kg by HPLC-MS analysis; type: ADME, organism-based; conditions: in vivo

| pIC50 [1] | pIC50 [2] | Structure (SMILES) | other results |
| --- | --- | --- | --- |
| 7.07 | 7.60 | N#Cc1ccnc(N2C(=O)CC[C@H]2C(=O)N(c2cccc(F)c2)[C@@]2(C(=O)NC3CC(F)(F)C3)CCc3ccccc32)c1 | CLH [3]: 54.1 mL/min; CLH [4]: 3.7 mL/min |
| 6.97 | – | N#Cc1ccnc(N2C(=O)CC[C@H]2C(=O)N(c2cccc(F)c2)[C@@]2(C(=O)NC3CC(F)(F)C3)CCc3cc(F)ccc32)c1 | – |
| < 5.00 | – | N#Cc1ccnc(N2C(=O)CC[C@@H]2C(=O)N(c2cccc(F)c2)[C@@]2(C(=O)NC3CC(F)(F)C3)CCc3ccccc32)c1 | – |
| 6.73 | – | N#Cc1ccnc(N2C(=O)CC[C@H]2C(=O)N(c2ccc(Cl)c(F)c2)[C@@]2(C(=O)NC3CC(F)(F)C3)CCc3ccccc32)c1 | – |
| 7.03 | 7.68 | N#Cc1ccnc(N2C(=O)CC[C@H]2C(=O)N(c2cncc(F)c2)[C@@]2(C(=O)NC3CC(F)(F)C3)CCc3ccccc32)c1 | – |
| 7.31 | 8.12 | N#Cc1ccnc(N2C(=O)CC[C@H]2C(=O)N(c2cccc(F)c2)[C@@]2(C(=O)NC3CC(F)(F)C3)CCc3cc(Cl)ccc32)c1 | pIC50 [5]: 5.75; pIC50 [6]: < 7.00; Ratio IC50 [7]: 36; Ratio IC50 [8]: > 2040; clearance [9]: 20 mL/min/kg; Vd [10]: 1.9 L; AUC [11]: 834 ng·h/mL; AUC [12]: 3780 ng·h/mL; F [13]: 38% |
| 7.02 | – | N#Cc1ccnc(N2C(=O)CC[C@H]2C(=O)N(c2ccc(F)c(F)c2)[C@@]2(C(=O)NC3CC(F)(F)C3)CCc3ccccc32)c1 | – |
| < 6.00 | – | N#Cc1ccnc(N2C(=O)CC[C@H]2C(=O)N(c2cccc(F)c2)[C@@]2(C(=O)NC3CCOCC3)CCc3ccccc32)c1 | – |
| 6.59 | – | N#Cc1ccnc(N2C(=O)CC[C@H]2C(=O)N(c2cccc(Cl)c2)[C@@]2(C(=O)NC3CC(F)(F)C3)CCc3ccccc32)c1 | – |
| 7.10 | 7.82 | N#Cc1ccnc(N2C(=O)CC[C@H]2C(=O)N(c2cccc(F)c2)[C@@]2(C(=O)NCC3CCC(F)(F)CC3)CCc3ccccc32)c1 | CLH [3]: 567 mL/min; CLH [4]: 24 mL/min |
| 7.43 | > 8.00 | N#Cc1ccnc(N2C(=O)CC[C@H]2C(=O)N(c2cccc(F)c2)[C@@]2(C(=O)NC3CCCCC3)CCc3ccccc32)c1 | CLH [3]: 2359 mL/min; CLH [4]: 1145 mL/min |
| 6.58 | – | N#Cc1ccnc(N2C(=O)CC[C@H]2C(=O)N(c2cccc(F)c2)[C@@]2(C(=O)NCC3CC3)CCc3ccccc32)c1 | – |
| 6.86 | – | N#Cc1ccnc(N2C(=O)CC[C@H]2C(=O)N(c2cccc(F)c2)[C@@]2(C(=O)NC3CC(F)(F)C3)CCc3ccc(F)cc32)c1 | – |

Continued, molecule first:

| Structure (SMILES) | pIC50 [1] | pIC50 [2] | other results |
| --- | --- | --- | --- |
| O=C1CC[C@@H](C(=O)N(c2cc(F)cc(F)c2)[C@@]2(C(=O)NC3CC(F)(F)C3)CCc3ccccc32)N1c1cnccn1 | 6.89 | – | – |
| N#Cc1ccnc(N2C(=O)CC[C@H]2C(=O)N(c2cc(F)cc(F)c2)[C@@]2(C(=O)NC3CC(F)(F)C3)CCc3ccccc32)n1 | 7.66 | 7.83 | – |
| N#Cc1ccnc(N2C(=O)OC[C@H]2C(=O)N(c2cccc(F)c2)[C@@]2(C(=O)NC3CC(F)(F)C3)CCc3cccc(Cl)c32)n1 | 8.25 | 7.54 | – |
| N#Cc1ccnc(N2C(=O)CC[C@H]2C(=O)N(c2cc(F)cc(Cl)c2)[C@@]2(C(=O)NC3CC(F)(F)C3)CCc3ccccc32)c1 | 6.76 | – | – |
| N#Cc1ccnc(N2CCC[C@H]2C(=O)N(c2cccc(F)c2)[C@@]2(C(=O)NC3CC(F)(F)C3)CCc3ccccc32)c1 | 6.20 | – | – |
| N#Cc1ccnc(N2C(=O)CC[C@H]2C(=O)N(c2cc(F)cc(F)c2)[C@@]2(C(=O)NC3CC(F)(F)C3)CCc3cccc(Cl)c32)c1 | 6.74 | – | – |
| N#Cc1ccnc(N2C(=O)CC[C@H]2C(=O)N(c2cccc(F)c2)[C@@]2(C(=O)NC3CC(F)(F)C3)CCc3cccc(F)c32)c1 | 7.29 | 7.28 | – |
| N#Cc1ccnc(N2C(=O)CC[C@H]2C(=O)N(c2cccc(F)c2)[C@@]2(C(=O)Nc3ccccc3)CCc3ccccc32)c1 | < 6.00 | – | – |
| N#Cc1ccnc(N2C(=O)OC[C@H]2C(=O)N(c2cccc(F)c2)[C@@]2(C(=O)NC3CC(F)(F)C3)CCc3ccccc32)c1 | 7.24 | 7.72 | – |
| COc1ccnc(N2C(=O)CC[C@H]2C(=O)N(c2cc(F)cc(F)c2)[C@@]2(C(=O)NC3CC(F)(F)C3)CCc3ccccc32)c1 | < 5.00 | – | – |
| O=C1CC[C@@H](C(=O)N(c2cc(F)cc(F)c2)[C@@]2(C(=O)NC3CC(F)(F)C3)CCc3ccccc32)N1c1ccccn1 | < 5.00 | – | – |
| N#Cc1cccc(N2C(=O)CC[C@H]2C(=O)N(c2cc(F)cc(F)c2)[C@@]2(C(=O)NC3CC(F)(F)C3)CCc3ccccc32)c1 | 5.58 | – | – |
| N#Cc1ccnc(N2C(=O)CC[C@H]2C(=O)N(c2cncc(F)c2)[C@@]2(C(=O)NC3CC(F)(F)C3)Cc3ccccc32)c1 | 6.57 | – | – |
| N#Cc1ccnc(N2C(=O)CC[C@H]2C(=O)N(c2ccccc2)[C@@]2(C(=O)NC3CC(F)(F)C3)CCc3ccccc32)c1 | 6.59 | – | – |
| N#Cc1ccnc(N2C(=O)CC[C@H]2C(=O)N(c2cc(F)cc(F)c2)[C@@]2(C(=O)NC3CC(F)(F)C3)CCc3ccccc32)c1 | 7.35 | 8.30 | pIC50 [5]: 5.45; pIC50 [6]: < 7.00; Ratio IC50 [7]: 79; Ratio IC50 [8]: > 2200; clearance [9]: 8.33 mL/min/kg; Vd [10]: 1 L; AUC [11]: 1984 ng·h/mL; AUC [12]: 3620 ng·h/mL; F [13]: 87% |
| N#Cc1ccnc(N2C(=O)CC[C@H]2C(=O)N(c2cccc(F)c2)[C@@]2(C(=O)NC3CC(F)(F)C3)CCc3c(F)cccc32)c1 | 7.17 | 7.57 | – |
| N#Cc1ccnc(N2C(=O)CC[C@H]2C(=O)N(c2cncc(F)c2)[C@@]2(C(=O)NC3CC(F)(F)C3)CCCc3ccccc32)c1 | 6.56 | – | – |
| N#Cc1ccnc(N2C(=O)CC[C@H]2C(=O)N(c2cccc(F)c2)[C@@]2(C(=O)NC3CC(F)(F)C3)CCc3cccc(Cl)c32)n1 | 7.66 | 7.38 | – |
| N#Cc1ccnc(N2C(=O)OC[C@H]2C(=O)N(c2cc(F)cc(F)c2)[C@@]2(C(=O)NC3CC(F)(F)C3)CCc3ccccc32)c1 | 7.27 | 8.05 | – |
| CS(=O)(=O)c1ccnc(N2C(=O)CC[C@H]2C(=O)N(c2cc(F)cc(F)c2)[C@@]2(C(=O)NC3CC(F)(F)C3)CCc3ccccc32)c1 | 5.53 | – | – |
| N#Cc1ccnc(N2C(=O)CC[C@H]2C(=O)N(c2cc(F)ccc2F)[C@@]2(C(=O)NC3CC(F)(F)C3)CCc3ccccc32)c1 | 6.47 | – | – |
| N#Cc1ccnc(N2C(=O)CC[C@H]2C(=O)N(c2cccc(F)c2F)[C@@]2(C(=O)NC3CC(F)(F)C3)CCc3ccccc32)c1 | 6.83 | – | – |
| N#Cc1ccnc(N2C(=O)OC[C@H]2C(=O)N(c2cc(F)cc(F)c2)[C@@]2(C(=O)NC3CC(F)(F)C3)CCc3ccccc32)n1 | 7.40 | 6.51 | – |
| N#Cc1ccnc(N2C(=O)OC[C@H]2C(=O)N(c2cccc(F)c2)[C@@]2(C(=O)NC3CC(F)(F)C3)CCc3cccc(Cl)c32)c1 | 7.38 | 8.05 | – |
| N#Cc1ccnc(N2C(=O)CC[C@H]2C(=O)N(c2cccc(F)c2)[C@@]2(C(=O)NC3CC(F)(F)C3)CCc3c(Cl)cccc32)c1 | 7.17 | 7.68 | – |
| N#Cc1ccnc(N2C(=O)CC[C@H]2C(=O)N(c2cc(F)cc(F)c2)[C@@]2(C(=O)NC3CC(F)(F)C3)CCc3c(Cl)cccc32)c1 | 7.28 | 7.85 | – |
